According to US12594289B2, “Potentiation of antibiotic effect” (The University of North Carolina at Chapel Hill, priority 2017, dated 2026):
≈ marks a conversion by molar mass, not a printed value. Where two headings read alike, the source gives them in different places.

Key:
Format in all cases: cell-based, Staphylococcus aureus
S. aureus HG003 [1] = assay: Propidium iodide uptake, membrane permeability (Example 11)
S. aureus HG003 [2] = assay: Killing by permeabilizing molecules in combination with tobramycin over 24 hours (Example 11)
S. aureus HG003 [3] = assay: microbe, parasite or virus in culture; settings: for MIC: Staphylococcus aureus
S. aureus HG003 [4] = assay: Killing of S. aureus by tobramycin with or without rhamnolipids (Example 4); settings: tobramycin 58 μg/ml alone
[5] = tested on: S. aureus HG003, arsenate treated; assay: Killing of low energy (arsenate treated) S. aureus (Example 6); settings: tobramycin 58 μg/ml, arsenate 1 mM
S. aureus HG003 [6] = assay: Killing in the presence of protein synthesis inhibitor linezolid (Example 8); settings: tobramycin 58 μg/ml, linezolid 50 μg/ml
[7] = tested on: S. aureus HG003 menD mutant (SCV)

SMILES | lethality to S. aureus alone (S. aureus HG003 [1]) | permeabilization of S. aureus (propidium iodide uptake) (S. aureus HG003 [1]) | effect of the presence of P. aeruginosa supernatant on MIC (S. aureus HG003 [3]) | MIC (S. aureus HG003 [3]; HG003) [µg/mL] | MIC (S. aureus HG003 [3]; PA14 / PAO1) [µg/mL] | further results
CCCCCCCCCCCC(=O)OCC(O)CO (stereo not drawn) [glycerol monolaureate] | not lethal | permeabilize |  |  |  | potentiation of tobramycin killing over 24 hours (S. aureus HG003 [2]): significant potentiation
Cc1onc(-c2ccccc2)c1C(=O)N[C@@H]1C(=O)N2[C@@H]1SC(C)(C)[C@@H]2C(=O)O [oxacillin] |  |  | not affected | 0.39 (≈ 0.971 µM) | 0.39 (≈ 0.971 µM) | 
CCCCCC/C=C\CCCCCCCC(=O)O [palmitoleic acid] | not lethal | permeabilize |  |  |  | potentiation of tobramycin killing over 24 hours (S. aureus HG003 [2]; in combination with tobramycin): significant potentiation
NC[C@H]1O[C@H](O[C@H]2[C@H](O)[C@@H](O[C@H]3O[C@H](CO)[C@@H](O)[C@H](N)[C@H]3O)[C@H](N)C[C@@H]2N)[C@H](N)C[C@@H]1O [tobramycin] |  |  |  |  | 3.12 to 6.25 (≈ 6.68 to 13.4 µM) | MIC (S. aureus HG003 [3]; PA14): 0.39 µg/mL (≈ 0.834 µM); survivors after 12 hours (S. aureus HG003 [4]): 10^4; killing of S. aureus under arsenate-induced low ATP [5]: fails to kill; killing in the presence of linezolid (S. aureus HG003 [6]): fails to kill; susceptibility of the menD mutant [7]: resistant
CN[C@H](CC(C)C)C(=O)N[C@H]1C(=O)N[C@@H](CC(N)=O)C(=O)N[C@H]2C(=O)N[C@H]3C(=O)N[C@H](C(=O)N[C@H](C(=O)O)c4cc(O)cc(O)c4-c4cc3ccc4O)[C@H](O)c3ccc(c(Cl)c3)Oc3cc2cc(c3O[C@@H]2O[C@H](CO)[C@@H](O)[C@H](O)[C@H]2O[C@H]2C[C@](C)(N)[C@H](O)[C@H](C)O2)Oc2ccc(cc2Cl)[C@H]1O [vancomycin] |  |  | not affected | 1.25 (≈ 0.863 µM) | 1.25 (≈ 0.863 µM) | 
